Data from PMC12469831, “The Odorant-Binding Proteins AspiOBP1 and AspiOBP2 in Aleurocanthus spiniferus Are Involved in the Perception of Host Volatiles” (International Journal of Molecular Sciences, 2025).
Counter-ions that a name gives are not always drawn.

Biological target: T1, AspiOBP2
T1 construct: signal peptide removed; pET-30a(+) BamHI/EcoRI, E. coli BL21; His-tag kept; about 27 kDa predicted; clone primers encode mature start ETSTVDS and C-terminus PPPKP
Assay: fluorescent probe titration, Scatchard
Type: binding, Aleurocanthus spiniferus
Conditions: 50 mmol/L Tris-HCl pH 7.4, 2 µmol/L protein, excitation 295 nm, His-tag kept

A Kd of 2260 ± 470 nM was found for `O=S(=O)(O)c1cccc2c(-c3ccc(Nc4ccccc4)c4c(S(=O)(=O)O)cccc34)ccc(Nc3ccccc3)c12` [bis-ANS, 4,4′-Dianilino-1,1′-binaphthyl-5,5′-disulfonic acid, dipotassium salt] in this work.
